Laboratory results as given in patent US4870187A, “Antihypercholesterolemic tetrazol-1-yl compounds” (Bristol-Myers Company, priority 1988, dated 1989).
Where a name gives a salt, the structure may show the parent alone.

Assays:
[1] = target: T1, rat liver HMG-CoA reductase (Rattus norvegicus, UniProt P51639); assay: Test A: In Vitro Inhibition of Microsomal HMG-CoA Reductase; format: biochemical; settings: rat liver microsomes; 0.33 mM d,1-[3-14C]-HMG-CoA, 3.0 mM NADPH, pH 7.2
T1 construct: from tissue; host or cells: rat liver microsomes
T1 sequence (P51639 1-887): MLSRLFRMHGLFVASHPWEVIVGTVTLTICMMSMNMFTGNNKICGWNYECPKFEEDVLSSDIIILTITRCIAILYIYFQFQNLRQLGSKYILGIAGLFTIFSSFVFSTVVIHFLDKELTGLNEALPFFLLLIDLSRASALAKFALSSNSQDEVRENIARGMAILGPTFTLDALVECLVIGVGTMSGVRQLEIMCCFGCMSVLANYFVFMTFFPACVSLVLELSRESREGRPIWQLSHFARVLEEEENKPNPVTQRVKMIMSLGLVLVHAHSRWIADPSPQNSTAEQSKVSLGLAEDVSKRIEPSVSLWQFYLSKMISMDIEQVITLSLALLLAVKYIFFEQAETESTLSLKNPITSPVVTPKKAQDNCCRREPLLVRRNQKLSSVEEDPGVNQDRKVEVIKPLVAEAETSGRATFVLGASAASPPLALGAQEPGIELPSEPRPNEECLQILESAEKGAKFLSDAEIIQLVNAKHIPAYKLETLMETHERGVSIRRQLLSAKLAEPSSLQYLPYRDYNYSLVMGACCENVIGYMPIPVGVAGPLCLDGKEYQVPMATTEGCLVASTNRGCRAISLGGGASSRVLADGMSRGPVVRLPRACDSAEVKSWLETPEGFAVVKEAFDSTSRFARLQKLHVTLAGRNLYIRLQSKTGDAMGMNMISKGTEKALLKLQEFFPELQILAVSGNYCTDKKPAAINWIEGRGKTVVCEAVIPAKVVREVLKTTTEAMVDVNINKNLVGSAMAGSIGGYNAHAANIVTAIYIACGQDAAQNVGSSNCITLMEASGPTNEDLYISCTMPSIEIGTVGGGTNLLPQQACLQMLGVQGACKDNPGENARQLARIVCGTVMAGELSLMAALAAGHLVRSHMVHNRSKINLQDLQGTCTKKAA
Experimental: The intact, fully activated microsomal form of rat liver HMG-CoA reductase (subunit MW ca 100,000 daltons) was prepared as described by Parker, et al., Biochem. Biophys. Res. Commun., 125, 629-635 (1984), and used as the source of enzyme for assays. HMG-CoA reductase activity was determined essentially by the method of Shapiro, et al., Biochem. Biophys. Acta., 370, 369-377 (1974), with modifications as described by Ingebritsen and Gibson, Meth. Enzymol. 71, 486-497 (1981) with the exception that the internal standard ^3 H-mevalonolactone is added after termination of the assay. […]
To measure reductase inhibition, test compounds dissolved in water or dimethylsulfoxide and diluted in buffer A (50 mM imidazole-HCl, 250 mM NaCl, 1 mM EDTA, 1 mM EGTA, 5 mM DTT, 20 μM leupeptin, pH=7.2) were incubated with aliquots of microsomes (80-160 μg protein in buffer A) followed by addition of d,1-[3-^14 C]-HMG-CoA (0.33 mM, 2.0 dpm/picomole) and NADPH (3.0 mM). The 50 percent inhibitory concentration (IC50) for each compound in Table 1 was calculated from the linear regression line of the percent decrease (from control) in enzyme activity vs. log concentration of inhibitor, determined using at least 4 dilutions of each test compound assayed in duplicate.

[2] = system: Isolated Hepatocyte Cholesterol Biosynthesis; assay: Test B: Isolated Hepatocyte Cholesterol Biosynthesis Assay; format: cell-based, male Wistar rats; settings: rat hepatocytes, 10 min preincubation, 60 min incubation at 37°, pH 7.35, read-out: IC50, Inhibition of Isolated Hepatocyte Cholesterol Biosynthesis
Experimental: Intact parenchymal hepatocytes were isolated from male Wistar rats (180-280 g) fed cholestyramine containing or normal diet, using the collagenase perfusion method essentially as described by Seglen, in Methods in Cell Biology (D. Prescott, ed.) Vol. 13, pp. 29-83, Academic Press, New York (1976). Cell preparations were used only when viability (trypan blue exclusion) exceeded 90%. Cholesterol biosynthesis was determined as the incorporation by hepatocytes of ^3 H from [^3 H]-water into total (cellular plus medium) 3β-hydroxy sterols as per Ingebritsen, et al., J. Biol. Chem., 254, 9986-9989 (1979). Hepatocyte sterols and lipids were isolated by a modification of the methods described by Kates, in Techniques in Lipidology, (M. Kates, ed.), pp. 349, 360-363, North Holland Publ. Co., Amsterdam, 1972. To isolate sterols, cells are extracted with methanol:chloroform:water (2:1:0.8), the chloroform phase is separated and extracted with benzene to remove traces of water, then dried under nitrogen. The residue is saponified at 75° C. with 0.30N NaOH in methanol:water (9:1). The alkaline mixture is then extracted three times with petroleum ether to yield the non-saponifiable lipids which include the free as well as initially esterified cholesterol. The extract is dried under nitrogen in the presence of carrier cholesterol (0.1 mg) and 10% benzene, and the residue is dissolved in acetone:ethanol (1:1). Finally, the 3β-hydroxysterols are precipitated with an excess of digitonin, the precipitate is washed in acetone, dried under nitrogen, and dissolved in toluene:methanol (1:1). The ^3 H-labelled sterols are quantified by liquid scintillation and corrected for counting efficiency. In some tests ^14 C-cholesterol was added to initial extractions as an index of recovery, which averaged 80±3%. […]

IC50 [1] | SMILES | IC50 [2]
750 nM | Cc1nnnn1C(/C=C/C(O)CC(O)CC(=O)O)=C(c1ccc(F)cc1)c1ccc(F)cc1 (centres unmarked) [Example 20] | 100 nM
120 nM | O=C(O)CC(O)CC(O)/C=C/C(=C(c1ccc(F)cc1)c1ccc(F)cc1)n1cnnn1 (centres unmarked) [Example 28, 9,9-Bis(4-fluorophenyl)-3,5-dihydroxy-8-(1H-tetrazol-1-yl)-6,8-nonadienoic acid, sodium salt] | 20 nM
 | CC[C@H](C)C(=O)O[C@H]1C[C@@H](C)C=C2C=C[C@H](C)[C@H](CC[C@@H]3C[C@@H](O)CC(=O)O3)[C@H]21 [Mevinolin (Lovastatin), Mevinolin, reference compound] | 46 ± 26 nM
